Assay results from US8163709B2, “TAK1-D mediated induction of cell death in human cancer cells by specific sequence short double-stranded RNAS” (Board of Regents of the University of Texas System, priority 2008, dated 2012).
Entries after “also recorded” stand apart in the source; their conditions may differ.

Legend:
[1] = system: H460 cells; assay: Protein synthesis by [35S] methionine incorporation in H460 cells; assay type: cell-based, human; conditions: for protein synthesis by [35S] methionine incorporation: 4 h
Description: On the next day cells were incubated with the dsRNAs for the given amount of time. Ten minutes prior to labeling the cell culture medium was replaced with cystein/methionine free RPMI. Thereafter, cells were incubated for 15 minutes in cystein/methionine free RPMI containing 40 μC/ml [^35S] methionine (Perkin Elmer, Waltham, Mass., USA).
In order to measure the incorporated radionuclide, cells were washed 5 times with 5% TCA, once with 70% ethanol and the proteins were solubilized in SDS-PAGE sample buffer. After addition of the samples to a liquid scintillation cocktail, [^35S] activity was determined in a LS6500 scintillation counter (Beckmann).
For SDS-PAGE cells were washed 3 times with PBS and proteins were solubilized by heating in non reducing sample buffer. After determination of the protein concentration (D protein assay, Bio-Rad, Hercules, Calif., USA) samples were reduced by the addition of DTT to a final concentration of 100 mM and separated in a 4-12% Bis-Tris gradient gel (NuPAGE, Invitrogen). The gel was dried after Coomassie blue staining and autoradiography was performed using a phosphoimager (Typhoon 9410, Amerham).

[2] = system: TLK1; assay: TLK1 protein level in NCI-H460 cells (Western blot); assay type: cell-based, human; conditions: first 6 h after addition
Source text: FIGS. 3A-D illustrate the timecourse as well the downstream signaling events of dsRNA mediated Tak1-D activation in more detail. […] This activation is not triggered by siRNA si6 or by the non-targeting scrambled sequence siNT, even at later timepoints. […] The activation of TAK1-D leads to a phosphorylation of the MAPKKs of both stress activated protein kinase signaling pathways, indicated by the occurrence of activation phosphorylation on MKK3/6 and MKK4 (FIG. 3A). Consecutively activation of MKK3/6 leads to phosphorylation and activation of the p38 MAPK, while activation of MKK4 phosphorylates and activates SAPK/JNK. These mitogen activated protein kinase kinases phosphorylate and activate their respective substrates p38 MAP kinase and SAPK/JNK. […] This provided further confirmation, apart from the rapid occurrence of TAK1-D phosphorylation, that gene silencing effects of the siRNAs play no role in the phenomena described.

[3] = system: SAPK/JNK pathway; assay: Activation of the SAPK/JNK pathway in H460 cells (Western blot); assay type: cell-based, human; conditions: for activation of the SAPK/JNK pathway (phosphorylation of MKK4, SAPK/JNK): H460 cells, 20 nM RNA, 2-6 h
[4] = system: p38; assay: p38 activation in mouse peritoneal macrophages; assay type: cell-based; conditions: 4 h
Description: It has been reported (Dempsey et al., 2000) that the splicing variant D of TAK1 could not be detected in many cell lines despite its expression in the parental tissue, most probably due to downregulation of the transcript during in vitro culture. Therefore, the inventors used macrophages 24 h after obtaining them from athymic NCR-NU/NU female mice by peritoneal lavage.

[5] = system: H460 cells; assay: Survival assay of H460 cells, Crystal Violet staining
[6] = system: NF-κB; assay: NF-κB activation in H460 cells (EMSA, IKKα/β phosphorylation); assay type: cell-based, human; conditions: hours after transfection (3 h, 6 h)
Description: EMSA. Electrophoretic mobility shift assays for NFκB were performed as described previously (Kurland et al., 2001) using 3.5 μg of nuclear protein for each reaction.
FIG. 16B illustrates the effect of dominant-negative TAK1-D/K63W on dsRNA si5 induced cell death. […] As a slight growth inhibition of si5 transfected H460-K63W cells can be observed in FIG. 16B it is interesting to ask whether this is caused by an incomplete suppression of TAK1-D activity or by activation of other dsRNA-dependent stress pathways. To answer this question, the activation of the transcription factor NF-κB by dsRNA si5 was tested, as it well established that dsRNA triggered activation of PKR (Zamanian-Daryoush et al., 2000), TLR3 (Jiang et al., 2003), and RIG1/Mda-5 (Hiscott et al., 2006) leads to a downstream activation of NF-κB.

si5: 21-mer siRNA against TLK1 mRNA: GGCUUUUGACCUUUAUGAAtt (SEQ ID NO: 2) / ttCCGAAAACUGGAAAUACUU (SEQ ID NO: 3) (sense GGCUUUUGACCUUUAUGAATT; antisense TTCCGAAAACUGGAAAUACUU; chemistry not given here; one strand is listed 3' to 5')
[35S] methionine incorporation, of its initial value ([1]; H460, after 4 hours, scintillation counting): about 60%
time until [35S] methionine incorporation significantly reduced ([1]; H460, after transfection): ≤ 1 h
[35S] methionine incorporation, of initial value ([1]; H460, within first 4 hours, SDS-PAGE autoradiography): about 50%
protein synthesis by [35S] methionine incorporation ([1]; TAK1-D/K63W transfected H460, 10 nM): could not be observed; also recorded: no change in protein synthesis can be detected
protein synthesis by [35S] methionine incorporation ([1]; wild-type and vector transfected H460, 10 nM): significant reduction in mRNA translation; also recorded: drops significantly
protein levels of Tlk1 [2]: remain unchanged
activation of the SAPK/JNK pathway (phosphorylation of MKK4, SAPK/JNK) [3]: activation of the stress-activated protein kinase jun-amino-terminal kinase (SAPK/JNK) pathway
activation of the SAPK/JNK pathway (phosphorylation of MKK4, SAPK/JNK) ([3]; listed as Si5): phosphorylation and activation of MKK3/6 as well as MKK4
activating phosphorylation of SAPK/JNK in TAK1-D/K63W transfected cells ([3]; H460 stably transfected with K63W vs wt and vector, 4 h): very significant reduction; also recorded: significantly reduced
p38 activation by phosphorylation [4]: p38 is activated by phosphorylation
effect on cells, Crystal Violet ([5]; H460, 5 nM, 48 h): slight growth retardation
effect on cells, Crystal Violet ([5]; H460, 10 nM to 20 nM, 48 h): significant cell kill
cell death, crystal violet ([5]; H460-wt and H460-vec, 5 or 10 nM, 48 h): massive cell death
cell death, crystal violet ([5]; TAK1-D/K63W transfected H460, 5 or 10 nM, 48 h): survive the treatment and not
activation of NF-κB (EMSA of nuclear protein) [6]: neither si5 nor si6 transfection lead to an activation; also recorded: does not activate NF-κB

si6: control 21-mer siRNA against TLK1 mRNA: GGGUGGAAAUGGCUCAAGUtt (SEQ ID NO: 4) / gtCCCACCUUUACCGAGUUCA (SEQ ID NO: 5) (sense GGGUGGAAAUGGCUCAAGUTT; antisense GTCCCACCUUUACCGAGUUCA; chemistry not given here; one strand is listed 3' to 5') [reference compound]
inhibition of translation ([1]; H460, SDS-PAGE autoradiography): No inhibition of translation was observed
[35S] methionine incorporation ([1]; H460, scintillation counting): remained unchanged
protein levels of Tlk1 [2]: remain unchanged
activation of the SAPK/JNK pathway (phosphorylation of MKK4, SAPK/JNK) [3]: had no effect; also recorded: does not occur; also recorded: No activation
p38 activation by phosphorylation [4]: not
cell death, crystal violet ([5]; H460, 48 hours after transfection, shRNA experiment): no cell death or growth inhibition could be observed
toxicity, crystal violet ([5]; H460-wt, H460-vec, H460-K63W, 48 h): no significant toxicity can be observed
activation of NF-κB (EMSA of nuclear protein) [6]: neither si5 nor si6 transfection lead to an activation
